The source made the active and inactive calls. How the calls were made is not given here.
Legend:
[1] = molecular target: T1, Ferrochelatase, mitochondrial (Homo sapiens) (UniProt P22830); conditions: at 10 µM
T1 sequence (whole entry): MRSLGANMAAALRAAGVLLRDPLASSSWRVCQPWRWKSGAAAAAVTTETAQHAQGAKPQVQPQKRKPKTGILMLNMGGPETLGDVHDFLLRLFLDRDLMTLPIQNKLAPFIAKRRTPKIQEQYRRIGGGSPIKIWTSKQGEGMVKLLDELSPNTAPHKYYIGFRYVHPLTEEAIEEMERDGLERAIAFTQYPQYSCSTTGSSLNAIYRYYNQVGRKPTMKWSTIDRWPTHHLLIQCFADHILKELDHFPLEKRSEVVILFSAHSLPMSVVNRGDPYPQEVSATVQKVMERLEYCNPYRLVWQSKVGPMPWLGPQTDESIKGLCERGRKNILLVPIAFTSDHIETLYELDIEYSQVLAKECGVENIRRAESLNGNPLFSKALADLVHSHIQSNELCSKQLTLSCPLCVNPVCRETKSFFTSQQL
Description: Compound was evaluated for the inhibition of human FECH at 10uM

[2] = molecular target: T2, Porphobilinogen deaminase (Homo sapiens) (UniProt P08397); conditions: at 100 µM
T2 sequence (whole entry): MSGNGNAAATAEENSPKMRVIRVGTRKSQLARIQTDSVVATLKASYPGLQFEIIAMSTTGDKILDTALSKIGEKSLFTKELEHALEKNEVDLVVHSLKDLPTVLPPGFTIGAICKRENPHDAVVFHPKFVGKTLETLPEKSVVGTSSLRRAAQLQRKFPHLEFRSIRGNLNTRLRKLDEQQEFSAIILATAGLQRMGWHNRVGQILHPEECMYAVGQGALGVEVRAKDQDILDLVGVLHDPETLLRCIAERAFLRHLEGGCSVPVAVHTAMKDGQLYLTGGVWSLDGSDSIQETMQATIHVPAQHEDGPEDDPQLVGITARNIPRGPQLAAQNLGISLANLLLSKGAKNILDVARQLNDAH
Description: Compound was evaluated for the inhibition of human HMBS at 100uM

inhibition [1]	inhibition [2]	SMILES
inactive	inactive	Cc1cccc(Cn2ccc(NC(=O)c3ccc4c(c3)OCO4)n2)c1
inactive	inactive	C[C@]1(O)C[C@@H](c2nc(-c3ccc4ccc(-c5ccccc5)nc4c3)c3c(N)nccn32)C1
inactive	inactive	CCOc1ccc(-c2nc(NC(=O)CS(=O)(=O)c3ccccc3)sc2C)cc1
inactive	inactive	Cc1cc(C)cc(COc2ccc3c(C)c(CCC(=O)O)c(=O)oc3c2C)c1
inactive	inactive	Clc1ccc(Cl)c(CO[C@H]2CCCC[C@@H]2n2ccnc2)c1
inactive	inactive	COc1ccc2nccc(NC(=O)C3CCN(CCc4ccc(Cl)cc4)CC3)c2n1
inactive	inactive	O=C(NCCN1CCCC1)c1cc(NCCCCN2CCC(F)(F)CC2)nc2ccc(Cl)cc12
inactive	inactive	N#Cc1nc(-c2ccccc2)oc1S(=O)(=O)c1ccc(Cl)cc1
inactive	inactive	COc1cc(NC(=O)Cc2nn(C)c(=O)c3ccccc23)ccc1Cl
inactive	inactive	CCC(NC(=O)c1ccccc1NC(=O)c1ccc(C)cc1)C(=O)OC (configuration not stated)
inactive	inactive	CCCCN(CCCC)c1c(C#N)cc(S(=O)(=O)Nc2ccccc2)cc1C#N
inactive	inactive	Cc1ccc2[nH]c3c(NCCN(C)C)ncnc3c2c1
inactive	inactive	Clc1ccc(CCNc2cc(-c3ccccc3)nc3ncnn23)cc1
inactive	inactive	Cn1ncc2c(N3CCOCC3)nc(NCCc3c[nH]c4ccccc34)nc21
inactive	inactive	COc1ccccc1OCCCCn1c(C2CC2)nc2ccccc21
inactive	inactive	C[C@H](C(N)=O)N1CCCC[C@H]1c1ccc(OCc2cccc(F)c2)cc1
inactive	inactive	Cc1ccc(S(=O)(=O)n2cc(-c3ccnc(N)c3)c3cc(Br)cnc32)cc1
inactive	inactive	Cc1nc(-c2ccccn2)nc(NCCc2ccc(S(C)(=O)=O)cc2)c1Cl
inactive	inactive	Cc1nn(C)cc1C(C)Nc1nncc(-c2ccc(C(F)(F)F)cc2)n1 (configuration not stated)
inactive	inactive	O=C(C1CCN(c2nnnn2-c2ccccc2)CC1)N1CCc2ccccc2C1
inactive	inactive	c1coc(CNc2nc(N3CCCCC3)nc3ccccc23)c1
inactive	inactive	O=C1Nc2ccc(Br)cc2C12NCCc1c2[nH]c2ccccc12 (configuration not stated)
inactive	inactive	CCCCS(=O)(=O)Nc1ccc2cnn(C)c2c1
inactive	inactive	Cc1cc(O)nc(-n2nc(C)cc2C)n1
inactive	inactive	COc1cc(C2=NCCN2)ccc1-c1cn(-c2cccc(C3=NCCN3)c2)nn1
inactive	inactive	COC(=O)c1c(NC(=O)c2cc3ccccc3oc2=O)sc2c1CCN(Cc1ccccc1)C2
inactive	inactive	COc1cc(NC(C)CCCN)c2ncccc2c1 (configuration not stated)
inactive	inactive	Cc1cc(OCC(=O)Nc2ccc(C(C)C)cc2)n(C)c(=O)c1C#N
inactive	inactive	CCC(Sc1nc2ccccc2o1)C(=O)Nc1nccs1 (configuration not stated)
inactive	inactive	O=C(Nc1cccc(-c2ccc(NCCCN3CCCC3)nc2)c1)c1ccccc1

The next lines start with the compound.

SMILES	inhibition [1]	inhibition [2]
CCc1nn(C)c(C(=O)NCc2ccc(Oc3ccc(C)cc3)cc2)c1Cl	inactive	inactive
CC(=O)Nc1ccc(-c2noc(CC3CCCN(Cc4cccc(F)c4C)C3)n2)cc1 (configuration not stated)	inactive	inactive
COc1ccc(CN2CCOc3ccc(C(C)(O)CN(C)C)cc3C2)cc1C (configuration not stated)	inactive	inactive
Cc1cc(C2=NOC(c3cc(Cl)c(F)c(Cl)c3)(C(F)(F)F)C2)ccc1C(=O)NCc1ccc2c(c1)C(C)(C)OB2O (configuration not stated)	inactive	inactive
CN1CCCC1CCO[C@](C)(c1ccccc1)c1ccc(Cl)cc1 (some centres not stated)	inactive	inactive
CC1COC2(CCN(c3nc(=O)c4cc(C(F)(F)F)cc([N+](=O)[O-])c4s3)CC2)O1 (configuration not stated)	inactive	inactive
Clc1ccc(-n2cc(COc3ccnc4ccccc34)nn2)cc1	inactive	inactive
COc1ccc(-c2cncc3ccc(C(=O)NCCCn4ccnc4)nc23)cc1	inactive	inactive
Cc1cc(NCCc2ccccc2)nc(NC(=N)Nc2ccc(Cl)cc2)n1	inactive	inactive
CCOc1ccc2cc(-c3nn(CC4CCN(C)CC4)c4ncnc(N)c34)ccc2c1	inactive	inactive
CS(=O)(=O)N1CCC(Cn2nc(Cc3cccc4ccccc34)c3c(N)ncnc32)CC1	inactive	inactive
O=C(NC1CC1)c1ccc(N2CCC(Cc3ccccc3)CC2)nc1	inactive	inactive
CC(C)C(C(=O)Nc1ccc(S(=O)(=O)N(C)C)cc1)c1ccc(Cl)cc1 (configuration not stated)	inactive	inactive
O=C(Nc1nnc(S)s1)c1cc(Br)ccc1Cl	inactive	inactive
O=C(Nc1ccc(N2CCNCC2)nc1)c1oc(-c2ccccc2)nc1C(F)(F)F	inactive	inactive
CC(=O)NCC1CN(c2ccc(-c3ccc(CNCc4cn[nH]n4)cc3)c(F)c2)C(=O)O1 (configuration not stated)	inactive	inactive
COc1cncc(-c2cncc(N3CCN(c4ccncc4)CC3)n2)c1	inactive	inactive
COc1ccc(-c2cnc3ccc(NCc4ccc(S(N)(=O)=O)cc4)nn23)cn1	inactive	inactive

SMILES	inhibition [1]	inhibition [2]
COc1ccc(C2=NCCN2)cc1-c1cn(-c2cccc(C3=NCCN3)c2)nn1	inactive	inactive
C[C@@H]1[C@H](O)[C@@H](C)/C=C/C=C/C=C/C=C/C=C/C=C/C=C/[C@H](O[C@@H]2O[C@H](C)[C@@H](O)[C@H](N)[C@@H]2O)C[C@@H]2O[C@](O)(C[C@@H](O)C[C@@H](O)[C@H](O)CC[C@@H](O)C[C@@H](O)CC(=O)O[C@H]1C)C[C@H](O)[C@H]2C(=O)O	inactive	inactive
Cc1cc(C)n2nc(C(=O)Nc3cc(C(F)(F)F)ccc3N3CCOCC3)nc2n1	inactive	inactive
Cn1c(=O)c2c(S(C)(=O)=O)snc2n(C)c1=O	inactive	inactive
CC(C)n1nc(-c2cc3c(Cl)cccc3[nH]2)c2c(N)ncnc21	inactive	inactive
OCc1ccc(-c2cncc(Nc3cccc(Cl)c3)c2)cc1	inactive	inactive
Cc1ccc(NC(=O)c2nc[nH]c2C(=O)Nc2nc3ccccc3[nH]2)c(C)c1	inactive	inactive
CS(=O)(=O)Cc1nc2ccccc2oc1=O	inactive	inactive
COc1ccc(Nc2ccccc2NC(=O)c2ccc(O)nc2)cc1	inactive	inactive
CCc1ccccc1-n1c(C)cn2c3c(=O)n(C(C(=O)OC)C(C)C)c(=O)n(C)c3nc12 (configuration not stated)	inactive	inactive
Cc1cc(C(=O)Nc2ccc(-c3ccccc3)cc2)no1	inactive	inactive
CCOc1ccc(OCC(=O)Nc2cc(C)cc(C)c2)cc1	inactive	inactive
CCC(=O)Nc1ccccc1C(=O)Nc1ccccn1	inactive	inactive
CCC(Sc1nc2ccccc2o1)C(=O)Nc1nnc(C)s1 (configuration not stated)	inactive	inactive
COc1ccc(OC)c(NCc2ccc3nc(N)nc(N)c3c2Cl)c1	inactive	inactive
Cc1ccc2cc(C3NC(=O)c4ccccc4N3)c(Cl)nc2c1 (configuration not stated)	inactive	inactive
COc1cccc(-c2cc3c(Nc4cccnc4)nccc3[nH]2)c1	inactive	inactive
CNc1snc(C)c1C(=O)NCCOc1ccc(OC)cc1	inactive	inactive

Reference: ChEMBL document CHEMBL3987221, “The Australian National University Dept Of Immunology Pathogen Box Compounds Screened” (2018)
